Data on 98 molecules can be found in ChEMBL document CHEMBL3507680, “University of Dundee, Gates Library screen for HepG2 cell viability”.

SMILES strings stand for the structures.

This data set is described as follows: Human HepG2 cell viability assay in 384 well format. Also on record: dose 125 nL, time 70.5 hour; concentration not given beside the values. Particulars: HepG2 cells, read-out: Inhibition. The class given is toxicity, cell-based.
In the case of `CCC[C@@H]1CN(c2ncnc3ccsc23)C[C@H]1NS(C)(=O)=O`, the cytotoxicity at 70.5 h is -8.21%.

`CNC(=O)c1noc(Cn2ncc3ccccc3c2=O)n1`: the cytotoxicity at 70.5 h stood at 0.589%.

Consider `COc1ccc(CCN2CCN(C(=O)c3scnc3C)CC2)cc1`, for which the cytotoxicity at 70.5 h is -5.8%.

Regarding `CC1(C)Oc2ccc(S(=O)(=O)NCCCn3ccnc3)cc2NC1=O`, the cytotoxicity at 70.5 h turned out to be 28.6%.

With `COc1ccccc1CCC(=O)N1C[C@H](c2ccccc2)[C@@H](N)C1`, the cytotoxicity at 70.5 h is -8.71%.

Regarding `Cc1nnn2c1COC(CNC(=O)c1cccn1C)C2` (stereo not drawn), the cytotoxicity at 70.5 h is -14.1%.

Take `CC(=O)N1CCN(C(=O)CNc2ccc3sccc3c2)CC1`: the cytotoxicity at 70.5 h was -4.15%.

`NC(=O)c1cccnc1N1C[C@@H]2CC[C@H](C1)N(Cc1ccccn1)C2=O`: the cytotoxicity at 70.5 h was found to be 5.12%.

Regarding `CN(CCc1ccccn1)C1CCCN(Cc2noc(C3CC3)n2)C1` (stereo not drawn), the cytotoxicity at 70.5 h was -4.84%.

As for `CNc1oc(-c2cc(S(=O)(=O)N3CCCC3)c(C)o2)nc1C#N`, the cytotoxicity at 70.5 h is -25%.

For the molecule `Cc1nn(CCO)cc1CN1CCCN(C2CCCC2)CC1`, the cytotoxicity at 70.5 h came out at 12.8%.

Regarding `Cc1ccc(Cl)cc1-n1nnnc1C1(N2CCCC2)CCCC1`, the cytotoxicity at 70.5 h was -11.5%.

On to `Cc1nc(CN2CCCC(c3cnccn3)C2)cs1` (stereo not drawn), for which the cytotoxicity at 70.5 h was -2.76%.

With `CN1CCN(C(=O)Cc2ccccn2)Cc2cccnc21`, the cytotoxicity at 70.5 h was -2.09%.

Consider `CCN(CC)Cc1ccc(C(=O)N2CCN(CC(C)O)CC2)o1` (stereo not drawn), for which the cytotoxicity at 70.5 h was -5.77%.

With `Cn1cc(CCNC(=O)N2CCCc3c(F)cccc32)cn1`, the cytotoxicity at 70.5 h was 3.99%.

Turning to `Cc1cc(C)n(C2CN(c3ncnc4c3CCC4)C2)n1`, the cytotoxicity at 70.5 h is -10.3%.

For `N[C@@H]1c2ccccc2C2(CCN(C(=O)c3cncc(Cl)c3)CC2)[C@H]1O`, the cytotoxicity at 70.5 h is 19%.

Turning to `COc1ccc(CNCCc2ccn(-c3ccccc3)n2)cc1O`, the cytotoxicity at 70.5 h was -8.7%.

Turning to `CCCOC(=O)N1CCc2cccc(S(=O)(=O)N3CCOCC3)c2C1`, the cytotoxicity at 70.5 h was -8.66%.

Regarding `CSc1ccc(C(=O)C2CCCN(C(=O)CCCn3cncn3)C2)cc1` (stereo not drawn), the cytotoxicity at 70.5 h is -6.96%.

As to `N#Cc1ccc(N2CCC3(CC2)COCCN3Cc2cccnc2)cc1`, the cytotoxicity at 70.5 h is -4.74%.

Consider `COc1cc(OC)cc(C2CCN(CC(=O)NCC(F)(F)F)C2)c1` (stereo not drawn), for which the cytotoxicity at 70.5 h is -3.94%.

As to `CN(C)Cc1nc(C(C)(C)NC(=O)c2nc3ccccc3s2)no1`, the cytotoxicity at 70.5 h was -7.47%.

For `COc1cccc(-c2cccc(-c3ccn(CC4COCCO4)n3)c2)n1` (stereo not drawn), the cytotoxicity at 70.5 h was 13.1%.

`CN(C)S(=O)(=O)c1ccc(-c2nc(C#N)c(NC3CC3)o2)o1`: the cytotoxicity at 70.5 h was -4.74%.

For `CCN(CC)Cc1nnc2sc(-c3cc(C(C)C)[nH]n3)nn12`, the cytotoxicity at 70.5 h is -8.88%.

For the molecule `CC(C)(C)c1noc(-c2ccnc(-n3cnc(C(=O)O)c3)c2)n1`, the cytotoxicity at 70.5 h is -4.5%.

As to `CCc1ccc(CCC(=O)N2CCC(=O)Nc3cccnc32)cc1`, the cytotoxicity at 70.5 h came to 23.9%.

As to `CN(C)C(=O)CO[C@H]1CN(Cc2ccc(F)cc2)[C@@H]2CCCO[C@H]12`, the cytotoxicity at 70.5 h is -9.38%.

On to `Cc1cccc(OCCNC(=O)CN2CCCC2Cn2cncn2)c1` (stereo not drawn), for which the cytotoxicity at 70.5 h is -4.68%.

Take `CN1N=C(C(=O)NCc2ccc3c(c2)CCCN3C)CCC1=O`: the cytotoxicity at 70.5 h came out at 5.34%.

In the case of `CN(C)C(=O)c1cc2c(nc1NCC1CC1)CCN(CC1CC1)CC2`, the cytotoxicity at 70.5 h was determined as 5.16%.

As for `CC(C)NC(=O)CCNC(=O)CCc1cc(Br)cs1`, the cytotoxicity at 70.5 h is -6.47%.

With `COC(=O)CNC(=O)N1CCC2(CC1)CC(c1ccccc1)CN(C)C2` (stereo not drawn), the cytotoxicity at 70.5 h worked out at 15.9%.

On to `CN(c1ncccc1CNCc1ncc[nH]1)C1CCCCC1`, for which the cytotoxicity at 70.5 h is -13.1%.

On to `Cc1nc(C)c(C(=O)N(C)Cc2cnn(C)c2)s1`, for which the cytotoxicity at 70.5 h came to 1.01%.

With `COc1ccccc1C(C)CC(=O)N1CCCS1(=O)=O` (stereo not drawn), the cytotoxicity at 70.5 h was -5.37%.

Consider `CCN(C)C1COC2(CCN(C(=O)c3ccc4[nH]ccc4c3)CC2)C1` (stereo not drawn), for which the cytotoxicity at 70.5 h is -11%.

`Cc1ccc(CNC(=O)C2CCN(C(=O)c3ccccc3)CC2)n1C`: the cytotoxicity at 70.5 h was -8.06%.

Take `Cc1cc(C)nc(NCCC(=O)Nc2ccc(Cn3cncn3)cc2)n1`: the cytotoxicity at 70.5 h was -9.08%.

With `O=C1CC(c2ccc(C(=O)O)cc2)c2cnn(Cc3ccco3)c2N1` (stereo not drawn), the cytotoxicity at 70.5 h was -25.8%.

In the case of `CC1(C(=O)NC2CCCC2)CCCN(c2ncccn2)C1` (stereo not drawn), the cytotoxicity at 70.5 h turned out to be 6.47%.

`CCn1cc(C(=O)Nc2cc(C)ccc2C)cn1`: the cytotoxicity at 70.5 h is 17%.

`Cc1c(CN2CCCC(C(=O)c3ccc(C(C)(C)C)cc3)C2)cnn1C` (stereo not drawn): the cytotoxicity at 70.5 h is -4.49%.

On to `COc1ccc(OCCN2CCCN(Cc3noc(C)n3)CC2)cc1`, for which the cytotoxicity at 70.5 h worked out at 30.5%.

`CC(C)N1CCC2(CC1)CC(c1cccnc1)C(=O)N2` (stereo not drawn): the cytotoxicity at 70.5 h is -10.2%.

Turning to `COCCN1CCC2(CC1)CC(N1CCOCC1)c1cc(C)ccc12` (stereo not drawn), the cytotoxicity at 70.5 h came to 4.82%.

For `Cn1ncc2c1C(COCC1CC1)CN(S(=O)(=O)C1CC1)C2` (stereo not drawn), the cytotoxicity at 70.5 h is -4.08%.

Turning to `CN(C)c1ncccc1CNc1snc(Cl)c1C#N`, the cytotoxicity at 70.5 h was -77.9%.

Take `COc1ncccc1CN1C[C@H]2CCN(c3ccc(C)nn3)C[C@H]2C1`: the cytotoxicity at 70.5 h was 20%.

On to `CC(C)Oc1cccc(CNC(=O)N2CCC(N3CC=CC3)C2)c1` (stereo not drawn), for which the cytotoxicity at 70.5 h is 26.6%.

With `CN(C)CCC1CCN(c2cc(N3CCCC3CO)ncn2)CC1` (stereo not drawn), the cytotoxicity at 70.5 h is 11.7%.

Regarding `Cc1n[nH]cc1CNC1CCN(c2cccc(C(F)(F)F)c2)CC1`, the cytotoxicity at 70.5 h was 2.2%.

For the molecule `Cc1noc(-c2ccnc(N3CCC(CN4CCOCC4)CC3)c2)n1`, the cytotoxicity at 70.5 h turned out to be 11%.

For `Cc1nn(C)c2c(=O)n(Cc3ccccc3)nnc12`, the cytotoxicity at 70.5 h was -13.5%.

In the case of `COc1ncc(C2(O)CCN(Cc3ccccc3O)CC2)c(OC)n1`, the cytotoxicity at 70.5 h is 7.32%.

Turning to `Nc1nc2c(c(NC(=O)Nc3ccc(Cl)c(Cl)c3)n1)CCCC2`, the cytotoxicity at 70.5 h was found to be 9.83%.

Consider `CCOc1ccnc(N2CCN(C(=O)c3ccncc3)CC2)n1`, for which the cytotoxicity at 70.5 h is -9.15%.

As to `Cc1cc2cc(C(=O)N3CCN(CCO)[C@@H]4CS(=O)(=O)C[C@@H]43)ccc2o1`, the cytotoxicity at 70.5 h worked out at 19.6%.

Take `O=S(=O)(C1CC1)N1CCOCC2(CCN(c3ccccn3)C2)C1` (stereo not drawn): the cytotoxicity at 70.5 h came out at 36.2%.

Turning to `COc1ccc(OC)c(CN2CCN(Cc3cscn3)CC2)c1`, the cytotoxicity at 70.5 h is -5.74%.

As to `CNc1nc(C2CCCN2C(C)=O)nc2c1CN(C1CCCC1)CC2` (stereo not drawn), the cytotoxicity at 70.5 h is -4.73%.

`COCCNC(=O)[C@H]1C[C@@H]2CCN(Cc3ccncc3)C[C@H]2O1`: the cytotoxicity at 70.5 h was -9.09%.

On to `CC(C)(C)n1ncc2c1NC(=O)CC2c1ccc(C#N)cc1` (stereo not drawn), for which the cytotoxicity at 70.5 h is -10%.

In the case of `O=C(C1CC1)N1CCc2ccccc2C12CCNCC2`, the cytotoxicity at 70.5 h was -1.81%.

On to `O=C(NCc1cnc2n1CCN(CC1CC1)C2)C1CC1`, for which the cytotoxicity at 70.5 h turned out to be 28%.

Turning to `COc1cccc(N2CCN(C(=O)c3ccc(=O)n(C)c3)CC2)c1`, the cytotoxicity at 70.5 h is -3.95%.

In the case of `CC(C)(CNC(=O)C1(c2cccc(Br)c2)CCOCC1)C(=O)O`, the cytotoxicity at 70.5 h was -0.158%.

As for `O=C1CC[C@]2(CC[C@@H](NC(=O)NCc3cccnc3)CC2)N1`, the cytotoxicity at 70.5 h is -2.72%.

In the case of `CC(C)(C)S(=O)(=O)c1ccc(N2CCN(c3ccccn3)CC2)nn1`, the cytotoxicity at 70.5 h is -17.1%.

As for `COc1ccc(CNCC2CCN(CC(C)O)CC2)c2ccccc12` (stereo not drawn), the cytotoxicity at 70.5 h was found to be 29.8%.

In the case of `NC(=O)c1ccc(N2CCN(Cc3c(Cl)cncc3Cl)CC2)nc1`, the cytotoxicity at 70.5 h was determined as 10.8%.

Take `CN(Cc1ccco1)C(=O)CN1CCCC(Cn2cncn2)C1` (stereo not drawn): the cytotoxicity at 70.5 h was -8.21%.

For `CCOc1cc(C(=O)N2CCCC(c3noc(C)n3)C2)ccc1OC` (stereo not drawn), the cytotoxicity at 70.5 h was -4.06%.

With `Cn1cc(CN(C(=O)C2COc3ccccc3C2)C2CC2)cn1` (stereo not drawn), the cytotoxicity at 70.5 h is -9.16%.

For `CCN1CCC2(CCC1=O)CN(c1cnc3ccccc3n1)CCN2C` (stereo not drawn), the cytotoxicity at 70.5 h was -2.99%.

Consider `CC(C)C(=O)N1CCCN(C(=O)NC2CCc3ccccc3C2)CC1` (stereo not drawn), for which the cytotoxicity at 70.5 h was -4.48%.

As to `CC1COCCN1C(=O)NCCCn1ccnc1` (stereo not drawn), the cytotoxicity at 70.5 h is -2.86%.

For `CSc1ccc(C)c(C(=O)N2CCCC(n3cncn3)C2)c1` (stereo not drawn), the cytotoxicity at 70.5 h is -2.61%.

`O=C1OCCN1CCN1CCCN(Cc2ccccc2F)CC1`: the cytotoxicity at 70.5 h is -4.26%.

As for `Cc1nc(CN(C)C2CCN(Cc3nc4c(F)cccc4[nH]3)C2)no1` (stereo not drawn), the cytotoxicity at 70.5 h is 4.6%.

As to `CCc1ccc2c(c1)C(CCNC(=O)Cc1cccc(F)c1)C(=O)N2` (stereo not drawn), the cytotoxicity at 70.5 h was -4.81%.

For the molecule `CC1CCC(O)(Cn2ncnc2-c2cccc(C#N)c2)CC1` (stereo not drawn), the cytotoxicity at 70.5 h was -5.94%.

For the molecule `CC(Cn1cccn1)NCc1csc2c1CCCC2` (stereo not drawn), the cytotoxicity at 70.5 h stood at 0.457%.

For `COc1cccc([C@H]2CN(C(=O)c3noc4c3CCCC4)C[C@@H]2N)c1`, the cytotoxicity at 70.5 h was -3.29%.

As to `Cc1nc2ccc(C(=O)N3CCN(CCO)[C@@H]4CS(=O)(=O)C[C@@H]43)cc2o1`, the cytotoxicity at 70.5 h is -5.42%.

Take `CC(C)(C)c1ccc(-n2ncc3c2CCCC3N)cc1` (stereo not drawn): the cytotoxicity at 70.5 h is -3.43%.

Take `Nc1ccnc(C(=O)N2CCCC3(CCC(=O)N(C4CCCC4)C3)C2)c1` (stereo not drawn): the cytotoxicity at 70.5 h is -7.4%.

In the case of `Cc1cnn(C2CN(CC(=O)NCCc3ccsc3)C2)c1`, the cytotoxicity at 70.5 h was -13.7%.

`CC1c2ncc(Cn3cncn3)n2CCN1C(=O)C1CCOCC1` (stereo not drawn): the cytotoxicity at 70.5 h was -2.59%.

For the molecule `CN(Cc1ccsc1)Cc1ccc(C2CCCCO2)o1` (stereo not drawn), the cytotoxicity at 70.5 h is -3.14%.

Regarding `Cc1ccc(N2CC[C@H](OCC3CC3)[C@@H]2Cc2cnn(C)c2)nn1`, the cytotoxicity at 70.5 h stood at 0.692%.

Turning to `CN(Cc1noc(C2CC2)n1)C1CCN(CCc2cnn(C)c2)C1` (stereo not drawn), the cytotoxicity at 70.5 h was 14.4%.

Take `CCc1nsc(N2CCc3sccc3C2)n1`: the cytotoxicity at 70.5 h is -2.5%.

Take `CCCC(=O)N1CCN(c2cc(-n3cnc(C)c3C)nc(C)n2)CC1`: the cytotoxicity at 70.5 h is -2.01%.

For `CCS(=O)(=O)NC(CCSC)C(=O)Nc1cccc(C)c1C` (stereo not drawn), the cytotoxicity at 70.5 h was -83.4%.

In the case of `Cc1nc(C2CCCN2CC(=O)NCCOc2ccc(F)cc2)no1` (stereo not drawn), the cytotoxicity at 70.5 h is 47.6%.
